Assay: RP, Waters ACQUITY UPLC BEH C18, 100 × 1 mm, 1.7 µm, 50 °C, 0.3 mL/min, estimated dead time 0.17 min; A: water + 0.1% formic acid + 20 mM ammonium formate; B: methanol + 0.1% formic acid + 20 mM ammonium formate; gradient (min/%B) 0/0 15/100 21/100 22/0 30/0
Conditions: stereoisomer not certain

Row | SMILES | LC retention time [min]
1 | CC(=NC#N)N(C)Cc1ccc(Cl)nc1 [Acetamiprid] | 9.33
2 | Cc1ccc(N)cc1Cl [3-Chloro-4-methylaniline] | 10.1
3 | CC=C(C)C(=O)OC1CC[N+]2([O-])CC=C(COC(=O)C(O)(C(C)O)C(C)(C)O)C12 (stereo not given) [Echimidine N-oxide] | 9.37
4 | Nc1c(Cl)cccc1Cl [2,6-Dichloroaniline] | 17.6
5 | CCNC(=O)NC(=O)C(C#N)=NOC [Cymoxanil] | 9.68
6 | COP(=O)(OC)Oc1nc(Cl)c(Cl)cc1Cl [Chlorpyrifos-methyl-oxon] | 13.7
7 | NCCc1ccc(OC2OC(C(=O)O)C(O)C(O)C2O)c(O)c1 (stereo not given) [dopamine_glucuronide] | 9.2
8 | Cc1ccc(N=CN(C)C=Nc2ccc(C)cc2C)c(C)c1 [Amitraz] | 17.7
9 | CC(C)(c1ccccc1)c1cc(-n2nc3ccccc3n2)c(O)c(C(C)(C)c2ccccc2)c1 [UV-234] | 16.6
10 | COC(=O)c1ccccc1C(=O)OC [Dimethylphthalat DMP] | 11.2
11 | CNC(=O)Oc1ccccc1C1OCCO1 [Dioxacarb] | 15.1
12 | CC(C)(C)c1ccc(CCOc2ncnc3ccccc23)cc1 [Fenazaquin] | 17.8
13 | O=S(=O)(O)C(F)(F)F [Trifluoromethanesulfonic acid] | 2
14 | C=C1C(O)C2(O)OCC34C(CC5C(C)=CC(=O)C(O)C5(C)C23)OC(=O)CC14 (stereo not given) [Ailanthone] | 7.89
15 | O=C(O)CCCCCCC(=O)O [Suberic_acid] | 9.6
16 | CNC(=O)ON=C(CSC)C(C)(C)C [Thiofanox] | 11.7
17 | CCOP(=S)(NC(C)C)Oc1ccccc1C(=O)OC(C)C (stereo not given) [Isofenphos (-ethyl)] | 16
18 | CC(C)OC(=O)Nc1cccc(Cl)c1 [Chlorpropham] | 14.4
19 | CN(C)c1ccccc1 [N,N-Dimethylaniline] | 2.5

Row | SMILES | LC retention time [min]
20 | Oc1ccc(C2(c3ccc(O)cc3)CCCCC2)cc1 [Bisphenol Z] | 16
21 | CC12CC1(C)C(=O)N(c1cc(Cl)cc(Cl)c1)C2=O (stereo not given) [Procymidone] | 14.6
22 | c1ccc2[nH]ncc2c1 [Indazole] | 4.3
23 | CCS(=O)(=O)CCSP(=O)(OC)OC [Demeton-S-methyl-sulfone] | 7.78
24 | CCOP(=S)(OCC)Oc1cnc2ccccc2n1 [Quinalophos] | 15.3
25 | CCC(C(=O)O)C1CCC(C)C(C(C)C(O)C(C)C(=O)C(CC)C2OC3(C=CC(O)C4(CCC(C)(C5CCC(O)(CC)C(C)O5)O4)O3)C(C)CC2C)O1 (stereo not given) [Salinomycin] | 18.4
26 | O=C1C(Cl)C(CCl)CN1c1cccc(C(F)(F)F)c1 (stereo not given) [Flurochloridone] | 14.6
27 | O=C1CCC2(O)C3Cc4ccc(O)c5c4C2(CCN3CC2CC2)C1O5 (stereo not given) [Naltrexon] | 5.88
28 | O=c1ccc(=O)[nH][nH]1 [Maleic acid hydazide] | 16.4
29 | O=NNC1=NCCN1Cc1ccc(Cl)nc1 [Imidacloprid-nitrosoimine] | 7.84
30 | Cc1csc(C)c1NC(=O)CCl [Dimethenamid-N-dealkylation] | 10.2
31 | COCCOCCOC [Diglyme] | 7.31
32 | CC(C)C1CCC(Cc2ccc(Cl)cc2)C1(O)Cn1cncn1 (single isomer, unassigned; isomer 1) [Ipconazole (Isomer 1)] | 16.4
33 | CCCCCCCCCCCOC(=O)c1ccccc1C(=O)OCCCCCCCCCCC [Diundecylphthalate] | 21
34 | CCC(C)n1c(=O)[nH]c(C)c(Br)c1=O (stereo not given) [Bromacil] | 11.5
35 | N#CCCCCC#N [Adiponitrile] | 5.21
36 | CCOP(=S)(OCC)Oc1nc(Cl)c(Cl)cc1Cl [Chlorpyriphos-ethyl] | 17.1
37 | CCOC(=O)C(SP(=S)(OC)OC)c1ccccc1 (stereo not given) [Phenthoate] | 15.4

The remaining lines, values ahead:

Row | LC retention time [min] | SMILES
38 | 13.2 | O=C(O)c1cccnc1Oc1cccc(C(F)(F)F)c1 [Diflufenican-metabolite]
39 | 11.1 | Cc1cccc(C)c1N(Cn1cccn1)C(=O)CO [Metazachlor-OH-deschloro]
40 | 11.5 | CC1(C)C2CC=C(CO)C1C2 (single isomer, unassigned; (-)) [(-)-Myrtenol]
41 | 5.18 | Cn1ncc(N)c(Cl)c1=O [Methyl-Desphenyl-Chloridazon]
42 | 12.3 | CC(C)c1ccc(NC(N)=O)cc1 [1-(4-Isopropylphenyl)-Harnstoff]
43 | 10.8 | COCC(C)N(C(=O)CS(=O)(=O)O)c1c(C)csc1C (stereo not given) [Dimethenamid-M 27 (ESA)]
44 | 12.6 | CCCCOc1ccc(CC(=O)NO)cc1 [Bufexamac]
45 | 11.7 | COc1cc(OC)n2nc(NS(=O)(=O)c3c(C(F)(F)F)ccnc3OC)nc2n1 [Pyroxsulam]
46 | 3.58 | Nc1nc2c(ncn2CCC(CO)CO)c(=O)[nH]1 [Penciclovir]
47 | 7.3 | O=C(O)c1ccc2ccccc2n1 [Quinaldic acid]
48 | 7.8 | O=C1NC(=O)c2ccccc21 [phthalimide]
49 | 12 | CC1(C)C(=O)Oc2ccc(OS(C)(=O)=O)cc21 [Ethofumesate-2-keto]
50 | 7.48 | CCOc1ccc(NC(=O)OC(C)C)cc1OCC [Diethofencarb]
51 | 11.7 | CC1=C(C(=O)Nc2ccccc2)CCCO1 [Pyracarbolid]
52 | 6.08 | Nc1nc2ccccc2[nH]1 [2-Aminobenzimidazole]
53 | 3.69 | Cc1ccc(N)cc1O [5-Amino-o-cresol]
54 | 8.45 | N#Cc1ccccc1C#N [Phthalonitrile]
55 | 16.5 | CC(=O)Oc1ccccc1C(=O)O [Acetylsalicyls<e4>ure]
56 | 14 | Nc1ccc(S(=O)(=O)Nc2cnc3ccccc3n2)cc1 [Sulfachinoxalin]
57 | 9.71 | COc1ccc2[nH]cc(CCNC(C)=O)c2c1 [Melatonin]
58 | 7.2 | O=C(O)CNC(=O)c1ccccc1 [Hippuric_acid]
59 | 13 | CCCCOc1cc(C(=O)NCCN(CC)CC)c2ccccc2n1 [Dibucaine]
60 | 10.3 | O=c1cc(-c2ccc(O)cc2)oc2cc(OC3OC(CO)C(O)C(O)C3OC3OCC(O)(CO)C3O)cc(O)c12 (stereo not given) [Apiin]
61 | 7.5 | O=C(O)/C=C/c1cccc(O)c1 [trans-3-Hydroxycinnamic acid]
62 | 7.8 | O=C(O)c1cc2ccccc2[nH]1 [Indole-2-carboxylic acid/Indole-3-carboxylic acid]
63 | 2.8 | OCCc1cccc(O)c1 [2-(3-Hydroxyphenyl)ethanol]
64 | 12 | O=C1NC(=O)C(c2ccccc2)(c2ccccc2)N1 [Phenytoin]

Row | LC retention time [min] | SMILES
65 | 14 | CCCCCC(O)CC(=O)CCc1ccc(O)c(OC)c1 (stereo not given) [[6]-Gingerol]
66 | 13.8 | CC12CCC3C(=CCc4cc(O)ccc43)C1CCC2=O (stereo not given) [Equilin]
67 | 9.97 | CCN(CC)C(=O)Nc1ccc(OCC(O)CNC(C)(C)C)c(C(C)=O)c1 (stereo not given) [Celiprolol]
68 | 13.4 | CC(=O)OCC(=O)C1(O)CCC2C3CCC4=CC(=O)CCC4(C)C3C(O)CC21C (stereo not given) [Hydrocortisonacetate]
69 | 15.9 | CCCC(=O)Nc1ccc(OCC(O)CNC(C)C)c(C(C)=O)c1 (stereo not given) [Acebutolol]
70 | 9.71 | O=c1cc(-c2ccc(O)c(O)c2)oc2cc(OC3OC(CO)C(O)C(O)C3O)cc(O)c12 (stereo not given) [Luteolin 7-glucoside]
71 | 18.6 | CCCCCCCCCCCCCCCC(=O)OCC(O)CO (stereo not given) [Glyceryl-1-monopalmitate]
72 | 17.7 | CC(=O)C1(C)CC2=C(CCCC2(C)C)CC1C (stereo not given) [ISO E Super]
73 | 19 | CCCCCCCCCCCC(CC1OC(=O)C1CCCCCC)OC(=O)C(CC(C)C)NC=O (stereo not given) [Orlistat]
74 | 14.5 | CCCCCCCCCC(=O)OC(CC(=O)[O-])C[N+](C)(C)C [Decanoyl-L-Carnitine]
75 | 2.73 | O=S1(=O)CCCC1 [Sulfolane]
76 | 17 | Cc1cc(C(C)(C)C)c(O)c(C(C)(C)C)c1 [Dibutylhydroxytoluene]
77 | 8.71 | O=C(O)c1cccc(C(=O)O)c1 [Isophthalic acid]
78 | 16 | CC(C=CC1=C(C)CCCC1(C)C)=CC=CC(C)=CC(=O)O [9-cis-Retinoic acid]
79 | 15 | CCCC(C)(C)C(=O)Nc1ccc(Cl)cc1 [Monalide]
80 | 11.7 | O=C(O)CCc1c[nH]c2ccccc12 [3-Indolepropionic acid]
81 | 16.2 | O=C(O)c1ccccc1Nc1cccc(C(F)(F)F)c1 [Flufenamic acid]
82 | 6.5 | N[C@@H](Cc1ccc(O)cc1)C(=O)O [L-Tyrosine]
83 | 7.28 | Cc1c(N)c(=O)n(-c2ccccc2)n1C [4-Aminoantipyrine]
84 | 13.2 | COc1ccc(-c2coc3cc(O)ccc3c2=O)cc1 [Formononetin]
85 | 6.4 | CC=C(C)C(=O)NCC(=O)O [N-Tigloylglycine]
86 | 12.6 | CC12CCC3=C4CCC(=O)C=C4CCC3C1CCC2(O)CC#N (stereo not given) [Dienogest]
87 | 18.2 | CC(C)CC(C)OC(=O)c1ccccc1C(=O)OC(C)CC(C)C (stereo not given) [Bis(4-methyl-2-pentanyl)phthalate]
88 | 14.1 | CC(=O)OCC(=O)C1(O)C(C)CC2C3CCC4=CC(=O)C=CC4(C)C3(F)C(O)CC21C (stereo not given) [Betamethasone-21-acetate]
89 | 18.2 | CCCCC(CC)COC(=O)C=Cc1ccc(OC)cc1 (stereo not given) [Octyl-methoxycinnamate]
90 | 6.14 | Cc1nccc2ccccc12 [1-Methylisochinolin]
